Patent EP0679399B1, “Phosphate diesters for treatment of epidermis proliferative diseases” (Senju Pharmaceutical Co., Ltd., priority 1994, dated 1995)

Tests used:
[1] = test system: mouse model of psoriasis vulgaris; assay: Mouse model of psoriasis vulgaris induced by TPA (ear epidermal weight gain, ear swelling rate); format: in vivo, ddY mice; conditions: for inhibited the epidermal weight gain: relative to control; for Epidermal weight % gain: right vs left auricle, 72 hours after TPA, mean±SD (n=6-9)
Experimental: The efficacy of EPC-K was assayed in the mouse model of psoriasis vulgaris using 12-o-tetradecanoylphorbol-13-acetate (briefly TPA).
Male 6-week-old ddY mice purchased from SLC Japan were used.
The entire external surface of the right auricle of each mouse was coated with 20 nmol/40 µl of TPA/methanol, and after 6, 24, 48 and 72 hours, the thickness of the auricle was measured with a dial thickness gauge. The ear swelling rate (%) was then calculated. At 72 hours after application of TPA, the mouse was sacrificed and the right and left auricles were respectively punched out with a 8 mm (dia.) punch. The epidermis of each auricle was peeled off and the epidermal weight was determined. Then, the % gain in epidermal weight of the right auricle relative to the left auricle was calculated.
Each test substance was extemporaneously blended with TPA-methanol and 40 µl of the mixture was applied to the external surface of the right auricle of each mouse. Then, a methanolic solution of the corresponding test substance, 40 µl, was applied once daily for 2 days.
Dunnet's test was used for statistical efficacy evaluation of the test substance.

[2] = Acute toxicity (LD50) in rats; conditions: rat, in vivo
Experimental: The present compounds are very safe with extremely low toxic potential and can, therefore, be used with advantage for the purposes of this invention. For example, the LD50 of L-ascorbyl DL-α-tocopheryl phosphate potassium (abbreviation: EPC-K): is ≥ 5 g/kg p.o. (rats) and ≥ 100 mg/kg i.v. (rats).

SMILES	body weight (side effect) ([1]; 25 µg/auricle)	ear swelling rate ([1]; 25 µg/auricle, 6, 24, 48 and 72 hours after TPA (Fig. 1))	inhibited the epidermal weight gain ([1]; 25 µg/auricle) [%]	Epidermal weight % gain ([1]; 25 µg/auricle) [%]	inhibited the epidermal weight gain ([1]; 500 µg/auricle) [%]	Epidermal weight % gain ([1]; 500 µg/auricle) [%]	ear swelling rate ([1]; 1000 µg/auricle, compared with 25 µg betamethasone valerate (Fig. 1))	inhibited the epidermal weight gain ([1]; 1000 µg/auricle) [%]	Epidermal weight % gain ([1]; 1000 µg/auricle) [%]	ear swelling rate ([1]; 500 and 1000 µg/auricle, 6, 24, 48 and 72 hours after TPA (Fig. 1))	LD50 ([2]; iv) [mg/kg]	LD50 ([2]; po) [mg/kg]
CCCCC(=O)O[C@]1(C(=O)CO)[C@@H](C)C[C@H]2[C@@H]3CCC4=CC(=O)C=C[C@]4(C)[C@@]3(F)[C@@H](O)C[C@@]21C [Betamethasone valerate, reference compound]	induced body weight loss	fairly potent efficacy but its effect had been attenuated by 24 and 48 hours after application	81.1	21.0±19.9								
Cc1c(C)c2c(c(C)c1OP(=O)(O)OC1=C(O)[C@@H]([C@@H](O)CO)OC1=O)CCC(C)(CCCC(C)CCCC(C)CCCC(C)C)O2 (mixture of isomers) [EPC-K, L-ascorbyl DL-α-tocopheryl phosphate potassium]					52.8	52.4±40.1	more potent inhibitory effect	80.3	21.8±17.4	dose-dependent inhibitory effects at all points of time	≥ 100	≥ 5000
